{"source": "paper PMC6117091", "about": "“The C. difficile clnRAB operon initiates adaptations to the host environment in response to LL-37” (PLoS Pathogens, 2018)", "test_system": "C. difficile clnR Tn::clnRAB", "assay": "qRT-PCR of selected RNA-seq transcripts in LL-37", "conditions": "2 µg/ml LL-37; normalized to 630∆erm in BHIS; mean ± SEM, n ≥ 3", "data": [{"molecule": "CC[C@H](C)[C@H](NC(=O)[C@H](CCCCN)NC(=O)[C@H](CCC(=O)O)NC(=O)[C@H](CCCCN)NC(=O)[C@H](CO)NC(=O)[C@H](CCCCN)NC(=O)[C@H](CCCNC(=N)N)NC(=O)[C@H](Cc1ccccc1)NC(=O)[C@H](Cc1ccccc1)NC(=O)[C@H](CC(=O)O)NC(=O)CNC(=O)[C@H](CC(C)C)NC(=O)[C@@H](N)CC(C)C)C(=O)NCC(=O)N[C@@H](CCCCN)C(=O)N[C@@H](CCC(=O)O)C(=O)N[C@@H](Cc1ccccc1)C(=O)N[C@@H](CCCCN)C(=O)N[C@@H](CCCNC(=N)N)C(=O)N[C@H](C(=O)N[C@H](C(=O)N[C@@H](CCC(N)=O)C(=O)N[C@@H](CCCNC(=N)N)C(=O)N[C@H](C(=O)N[C@@H](CCCCN)C(=O)N[C@@H](CC(=O)O)C(=O)N[C@@H](Cc1ccccc1)C(=O)N[C@@H](CC(C)C)C(=O)N[C@@H](CCCNC(=N)N)C(=O)N[C@@H](CC(N)=O)C(=O)N[C@@H](CC(C)C)C(=O)N[C@H](C(=O)N1CCC[C@H]1C(=O)N[C@@H](CCCNC(=N)N)C(=O)N[C@H](C(=O)N[C@@H](CCC(=O)O)C(=O)N[C@@H](CO)C(=O)O)[C@@H](C)O)C(C)C)[C@@H](C)CC)C(C)C)[C@@H](C)CC", "note": "[LL-37]", "values": [{"measurement": "CD630_02840 relative expression", "result": "602.6 ± 455.6"}, {"measurement": "cstA (CD630_26000) relative expression", "result": "36.3 ± 21.3"}, {"measurement": "grdA (CD630_23520) relative expression", "result": "1649.2 ± 814.6"}, {"measurement": "mtlA (CD630_23340) relative expression", "result": "0.6 ± 0.2"}]}]}
